Experimental data: BindingDB's records for doi:10.1016/j.bmcl.2017.09.011 (Alma Mater Studiorum-University of Bologna, 2017)

Molecular target: DNA topoisomerase 2-alpha (Homo sapiens, UniProt P11388)
Assay: ChEBML_1696318
Method: Inhibition of recombinant human topoisomerase-2alpha expressed in Saccharomyces cerevisiae JEL1 harboring topoisomerase1 deletion mutant assessed as reduction in enzyme-mediated [gamma32P]ATP hydrolysis using relaxed pBR322 DNA as substrate after 8 mins

Chain of DNA topoisomerase 2-alpha (P11388 whole entry): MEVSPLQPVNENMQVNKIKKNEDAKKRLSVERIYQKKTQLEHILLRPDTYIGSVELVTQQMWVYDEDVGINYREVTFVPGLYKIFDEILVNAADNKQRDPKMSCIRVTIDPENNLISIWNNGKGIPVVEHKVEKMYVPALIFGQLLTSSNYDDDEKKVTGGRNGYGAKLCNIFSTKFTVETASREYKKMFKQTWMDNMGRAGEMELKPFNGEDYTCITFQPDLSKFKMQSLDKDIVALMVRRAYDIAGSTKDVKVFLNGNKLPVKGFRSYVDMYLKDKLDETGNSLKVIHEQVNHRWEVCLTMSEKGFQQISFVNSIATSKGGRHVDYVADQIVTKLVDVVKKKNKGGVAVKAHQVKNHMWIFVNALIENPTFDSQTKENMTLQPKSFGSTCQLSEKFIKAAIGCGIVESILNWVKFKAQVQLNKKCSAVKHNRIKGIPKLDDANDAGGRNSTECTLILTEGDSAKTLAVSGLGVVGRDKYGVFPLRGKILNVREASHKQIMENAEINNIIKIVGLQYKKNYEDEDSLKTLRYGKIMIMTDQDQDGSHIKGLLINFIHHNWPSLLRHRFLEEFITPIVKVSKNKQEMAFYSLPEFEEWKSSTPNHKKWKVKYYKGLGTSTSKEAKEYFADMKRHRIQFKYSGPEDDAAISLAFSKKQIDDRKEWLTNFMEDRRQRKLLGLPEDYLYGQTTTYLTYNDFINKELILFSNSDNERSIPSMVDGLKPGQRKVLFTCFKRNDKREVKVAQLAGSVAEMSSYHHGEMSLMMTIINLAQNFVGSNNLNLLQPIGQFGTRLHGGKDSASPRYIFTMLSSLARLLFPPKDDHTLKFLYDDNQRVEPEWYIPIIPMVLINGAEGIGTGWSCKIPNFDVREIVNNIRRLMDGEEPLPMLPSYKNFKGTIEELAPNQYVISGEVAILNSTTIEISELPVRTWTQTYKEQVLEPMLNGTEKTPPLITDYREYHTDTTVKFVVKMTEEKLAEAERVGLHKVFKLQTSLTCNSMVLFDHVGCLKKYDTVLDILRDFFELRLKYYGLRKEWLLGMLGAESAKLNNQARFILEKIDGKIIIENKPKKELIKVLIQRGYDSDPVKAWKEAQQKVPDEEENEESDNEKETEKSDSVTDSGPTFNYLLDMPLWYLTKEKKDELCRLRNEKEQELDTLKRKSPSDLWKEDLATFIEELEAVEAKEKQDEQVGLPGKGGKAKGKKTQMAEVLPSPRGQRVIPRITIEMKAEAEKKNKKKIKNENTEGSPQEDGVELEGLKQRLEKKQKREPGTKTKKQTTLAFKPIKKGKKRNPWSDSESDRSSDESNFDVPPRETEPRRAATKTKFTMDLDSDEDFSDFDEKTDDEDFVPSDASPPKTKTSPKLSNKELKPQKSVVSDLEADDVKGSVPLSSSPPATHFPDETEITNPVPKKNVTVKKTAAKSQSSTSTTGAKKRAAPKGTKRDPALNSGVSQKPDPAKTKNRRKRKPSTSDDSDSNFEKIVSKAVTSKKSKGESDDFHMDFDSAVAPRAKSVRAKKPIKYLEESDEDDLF

NCCCCNCC(O)COc1cc(O)c2c(=O)c3ccccc3oc2c1 (stereo unspecified)
IC50: 2500 nM
